Source: patent US7388124B2 (priority 2001, dated 2008)

Key:
[1] = system: open surgical rat model for CRPS I; details: prior art surgical model, Reyna et al. 1999; cited from earlier work
[2] = system: rat pain model variants; experiment: Analgesic effect in rat neurogenic pain model variants (overall statement); assay type: in vivo, Sprague Dawley rats; details: gabapentin 50 mg/kg IP, Table 12, within 40-80 minutes
Description: (§1) The methods of preparation and testing were similar for all the variant pain models described in this example. Male Sprague Dawley rats initially weighing between 150 and 175 grams were housed singly. Baseline behaviors to stimulations of the paw on which the procedure was to be performed were recorded over several sessions after accommodation of 3-4 days, and the results were averaged and used as the baseline control data. The pain behaviors studied were static mechanical allodynia (e.g., light touch stimulation with von Frey fibers 4.56, 4.73, 4.93, and/or 5.07), dynamic mechanical allodynia (e.g., stimulation with moving camel hair brush), and/or mechanical hyperalgesia (e.g., pinprick stimulation).
(§2) After the baseline control data was collected, the specified procedure with a gel was performed near the chosen nerve of each variant group (see Tables 2-6 and 8-10), then the rats were tested post procedurally and intermittently for up to 77 days for behavioral changes (see Tables 2-6 and 8-11) and for their responses to substances with analgesic properties (see Tables 7 and 12).
(§3) The stimuli used to elicit pain behavior were the von Frey fibers, camel hair brush and pinprick, with 6 stimulations of each stimulus. Each variant pain model had the same sequence of stimuli with the positive responses averaged and a student T-test performed for the significance of the post procedural responses as compared to the baseline control data (see Tables 2-6 and 11); and for the post-analgesic responses as compared to the pre-analgesic behavioral data (see Tables 7 and 12).
(§4) The tunnels identified by the above studies were then used for the placement of the biocompatible gels by the chosen peripheral nerves. The gelatinous or viscous substances (i.e., the gels) placed by the peripheral nerves or nerve roots contained collagen (e.g., AVITENE® and gelatin) or hydrogels. The “collagen gel” used in the present study was composed of 0.8 grams of collagen as AVITENE® (microfibrillar collagen hemostat flour, Davol Inc., Cranston, R.I. 02920) and 0.7 grams of collagen as gelatin (Knox gelatin, Kraft Foods, Northfield, Ill. 60093) mixed with 14 cc of normal saline until homogenous. Then the collagen mixture was placed in a PYREX® bowl resting in a paper bowl and covered with a ceramic saucer, then heated for 20 seconds at full power in a microwave. The resulting viscous mixture was kept fluid in a warm water bath at 100-110° F., until used for the placement procedure. The wound hydrogels used in the present study were two types: one contains alginate (SAF-Gel® from ConvaTec of E. R. Squibb & Sons, Princeton, N.J.) and the other contains acemannan from Aloe vera L. (Carrasyn®V from Carrington Laboratories, Irving, Tex.). […] Such hydrogels are used in the care of open dermal wounds as well as in first and second degree burns since they provide a closed moist environment for wound healing.
(§5) The rats were anesthesized with 1.5% to 2% isoflurane for the percutaneous kinesthetic placement of the above “gels” by the specified nerves. Using an angled 23 gauge thin wall 1″ needle, approximately 0.1 cc-0.2 cc of gel was placed percutaneously with kinesthetic technique in the anatomically defined fascial tunnels of the chosen peripheral nerves as described below.
(§6) The doses were given intraperitoneally (I.P.) and behavioral stimulus testing began 40-80 minutes after the dose. The student's t-test (p<0.05) was performed for determining the significance of changes in behaviors associated with pain after the analgesic was administered.

[3] = system: rat pain model variants; experiment: Dynamic mechanical allodynia (camel hair brush) in rat pain model variants; assay type: in vivo, Sprague Dawley rats; details: Gabapentin 50 mg/kg (IP); n=12 rats; Pre Avg 3.25; p=9.5E-4
Description: as §1, §2, §3
The tunnels identified by the above studies were then used for the placement of the biocompatible gels by the chosen peripheral nerves. The gelatinous or viscous substances (i.e., the gels) placed by the peripheral nerves or nerve roots contained collagen (e.g., AVITENE® and gelatin) or hydrogels. […]

[4] = system: rat pain model variants; experiment: Mechanical hyperalgesia (pinprick) in rat pain model variants; assay type: in vivo, Sprague Dawley rats; details: Gabapentin 50 mg/kg (IP); n=12 rats; Pre Avg 5.08; p=2.6E-5
Description: as §1, §2, §3, §4, §5, §6

[5] = system: rat pain model variants; assay type: in vivo, Sprague Dawley rats; details: Gabapentin 50 mg/kg (IP), n=12 rats
Description: Male Sprague Dawley rats initially weighing between 150 and 175 grams were housed singly. […] The pain behaviors studied were static mechanical allodynia (e.g., light touch stimulation with von Frey fibers 4.56, 4.73, 4.93, and/or 5.07), dynamic mechanical allodynia (e.g., stimulation with moving camel hair brush), and/or mechanical hyperalgesia (e.g., pinprick stimulation).
as §2
The stimuli used to elicit pain behavior were the von Frey fibers, camel hair brush and pinprick, with 6 stimulations of each stimulus.
as §4, §5, §6

[6] = system: Mice with Neural Compression; experiment: von Frey fiber and camel hair brush testing for mechanical allodynia in mice with collagen placed by the posterior tibial nerve; assay type: in vivo; details: for Average # Paw Withdrawals: of 10 stimulations, n=10 mice
Description: Biocompatible collagen was prepared for use in the present study. The collagen source was dry gelatin that was prepared using sterile techniques. The dry collagen was measured to 2.5 grams and mixed with 7.5 cc of sterile normal saline. The mixture was heated for 30 seconds in a microwave on 80% power, The mixture was kept soft in warm water (approximately 100 to 110 degrees).
The consistency of the resulting warm collagen was such that it was able to pass through a 23 gauge needle. Humidity and other factors such as temperature can affect the consistency of the substance. 1-cc syringes were used for injection of 0.2 to 0.25 cc of collagen. For the injection, 23 gauge 1″ standard luer lock hypodermic needles were used. The needles were very slightly dulled with a metal file at the tip and edges using sterile technique. The needles were angled at the midpoint with a bevel tip up. The angle was between 30 and 45 degrees, but any angle that allows for easy placement of the injected substance could be used. The needles were then attached to the collagen-filled one cc syringes. The syringes were kept in a warm water bath (100 to 110° F.) to maintain proper gel consistency.
The mice were lightly anesthetized with 1.5 to 2% isoflurane. The mice were then stabilized and aligned such that the left posterior leg was in view. The external anatomic landmarks of the posterior popliteal area were identified. The internal anatomy of this area including the posterior tibial nerve with its artery was mentally visualized with kinesthetic techniques. Kinesthetic techniques are methods that use the kinesthetic sense or the integration of the senses by which movement, mass, turgor, shape, resistance, elasticity, temperature, spatial relationships and position are commonly perceived. It also refers to the integrated use of multiple senses such as touch, proprioception, vision, and hearing. After location of the site for placement of the gel, the needle and syringe were then removed from the warm water bath. The distal portion of the needle was held loosely parallel to the tibia. The needle was allowed to gently penetrate through the dermis by pulling the skin taut over the popliteal fossa. With careful avoidance of tissue resistance, the needle tip, bevel up, was gently slipped beneath the fascial edge of the soleus muscle by the tibial nerve and artery into the deep posterior fascial compartment of the posterior tibial neurovascular tunnel, which is the neurovascular tunnel for the posterior tibial nerve and its proximal branches. When the tip of the needle was at the mid soleus muscle belly, the collagen mixture was slowly injected into the posterior tibial tunnel. The needle was removed and the animals allowed to recover from the anesthetic. All animals were normally moving freely within 20 minutes of anesthesia withdrawal.
Two days after placement of the collagen gel around the nerve, von Frey testing was again performed. Von Frey testing continued for 49 days. […]

In the case of `NCC1(CC(=O)O)CCCCC1` [gabapentin], the analgesic response [1] is listed as “exhibited an analgesic response”, the “analgesic effect (significance)” value [2] is listed as “significant analgesic effects” and the “analgesic effect (significance)” value ([2]; listed as Gabapentin) is listed as “significant analgesic effect”. For the same compound, the “Post Avg, Average Positive stimulations out of 6 total, Stim S Brush” value [3] was 1.25, the “Post Avg, Average Positive stimulations out of 6 total, Stim PP Pin Prick” value [4] was 2.25 and the “Post Avg, Average Positive stimulations out of 6 total, Stim A vF 4.56” value ([5]; Pre Avg 2.0, p=8.5E-5) was 0.25. The “Post Avg, Average Positive stimulations out of 6 total, Stim C vF 5.07” value ([5]; Pre Avg 2.42, p=4.4E-4) was 0.75, the “Post Avg, Average Positive stimulations out of 6 total, Stim B vF 4.93” value ([5]; Pre Avg 2.58, p=5.8E-5) was 0.5 and the “Average # Paw Withdrawals” value ([6]; gabapentin 25 mg/kg IP, post procedure day 58 (9.14 before dose)) was 6.86. For the same compound, the “Average # Paw Withdrawals” value ([6]; gabapentin 40 mg/kg IP, post procedure day 65 (9.19 before dose)) was 5.81 and the “Analgesic response (mechanical allodynia)” value ([6]; gabapentin 25 or 40 mg/kg IP) was “Analgesic responses were shown”.
